In brackets after ≈: the same amount, converted by molar mass. Each block holds one compound with its values, some of them ahead of it.
Key:
Escherichia coli [1] = assay: Compound was evaluated for the antibacterial activity against Escherichia coli (RTEM+ organism); format: functional
Escherichia coli [2] = assay: Compound was evaluated for the antibacterial activity against Escherichia coli with strain beta-Lactamase-negative (LAC-); format: functional
Staphylococcus aureus [3] = assay: Compound was evaluated for the antibacterial activity against Staphylococcus aureus with strain beta-Lactamase-negative (LAC-); format: functional
Staphylococcus aureus [4] = assay: Compound was evaluated for the antibacterial activity against Staphylococcus aureus with strain beta-Lactamase-positive (LAC+); format: functional
Staphylococcus aureus [5] = assay: Relative hydrolysis rate (RHR) was evaluated against Staphylococcus aureus with strain PC1.; format: ADME, organism-based
Escherichia coli [6] = assay: Compound was evaluated for the relative Vmax against Escherichia coli with strain 609 (beta-Lactamase-positive (LAC+)); format: ADME, organism-based
Escherichia coli [7] = assay: Compound was evaluated for the antibacterial activity against Escherichia coli with strain 609 (beta-Lactamase-positive (LAC+)); format: functional
Escherichia coli [8] = assay: Compound was evaluated for the antibacterial activity against Escherichia coli with strain NIHJ (beta-Lactamase-negative (LAC-)); format: functional
Escherichia coli [9] = assay: Compound was evaluated for the antibacterial activity against Escherichia coli (RTEM+ organism).; format: functional
Escherichia coli [10] = assay: Compound was evaluated for the antibacterial activity against Escherichia coli with strain NIHJ (beta-Lactamase-negative (LAC-); format: functional
[11] = Relative hydrolysis rate (RHR) was evaluated against K1 enzyme; format: ADME
[12] = Relative hydrolysis rate (RHR) was evaluated against RTEM enzyme; format: ADME
Escherichia coli [13] = assay: Compound was evaluated for the antibacterial activity against Escherichia coli with strain JC-S (beta-Lactamase-negative (LAC-)); format: functional
Enterobacter cloacae [14] = assay: Compound was evaluated for the antibacterial activity against Enterobacter cloacae with strain 233 (beta-Lactamase-positive (LAC+)); format: functional
Enterobacter cloacae [15] = assay: Compound was evaluated for the antibacterial activity against Enterobacter cloacae with the strains beta-Lactamase-positive (LAC+); format: functional
[16] = Relative Vmax was reported; format: ADME

SMILES: CC(=O)NCCSC1=C(C(=O)O)N2C(=O)[C@H]([C@H](C)O)C2C1 (stereo partly drawn)
MIC (Escherichia coli [1]): 0.8 µg/mL (≈ 2.54 µM)
MIC (Escherichia coli [2]): 0.8 µg/mL (≈ 2.54 µM)

SMILES: CC(=O)NCCSC1=C(C(=O)O)N2C(=O)[C@H]([C@@H](C)O)C2C1 (stereo partly drawn)
MIC (Escherichia coli [1]): 6.2 µg/mL (≈ 19.7 µM)
MIC (Escherichia coli [2]): 6.2 µg/mL (≈ 19.7 µM)

SMILES: C[C@H]1[C@H](NC(=O)CSc2cc(Cl)nc(Cl)c2)C(=O)N1OS(=O)(=O)[O-].[K+]
MIC (Staphylococcus aureus [3]): 0.2 µg/mL
MIC (Staphylococcus aureus [4]): 6.3 µg/mL
RHR (Staphylococcus aureus [5]): 2.6

SMILES: CC(O)[C@@H]1C(=O)N2C(C(=O)O)=C(SCCN)SC12 (stereo partly drawn)
RVmax (Escherichia coli [6]): < 0.1
MIC (Escherichia coli [7]): 25 µg/mL (≈ 86.1 µM)
MIC (Escherichia coli [8]): 12.5 µg/mL (≈ 43 µM)

SMILES: CCCO[C@@]1(NC(=O)CSCC#N)C(=O)N2C(C(=O)O)=C(CSc3nnnn3C)CSC21 (stereo partly drawn)
MIC (Escherichia coli [9]): 200 µg/mL (≈ 400 µM)
MIC (Escherichia coli [10]): > 200 µg/mL

SMILES: CCO[C@@]1(NC(=O)CSCC#N)C(=O)N2C(C(=O)O)=C(CSc3nnnn3C)CSC21 (stereo partly drawn)
MIC (Escherichia coli [9]): 50 µg/mL (≈ 103 µM)
MIC (Escherichia coli [10]): 50 µg/mL (≈ 103 µM)

SMILES: NCCSC1=C(C(=O)O)N2C(=O)[C@@H](CO)C2S1 (stereo partly drawn)
RVmax (Escherichia coli [6]): 10
MIC (Escherichia coli [7]): 25 µg/mL (≈ 90.5 µM)
MIC (Escherichia coli [8]): 3.1 µg/mL (≈ 11.2 µM)

SMILES: CC(O)[C@H]1C(=O)N2C(C(=O)O)=C(SCCN)SC12 (stereo partly drawn)
RVmax (Escherichia coli [6]): < 0.1
MIC (Escherichia coli [7]): 1.5 µg/mL (≈ 5.17 µM)
MIC (Escherichia coli [8]): 0.8 µg/mL (≈ 2.76 µM)

SMILES: CO[C@@]1(NC(=O)C(C(=O)O)c2ccc(O)cc2)C(=O)N2C(C(=O)O)=C(CSc3nnnn3C)COC21 (stereo partly drawn)
MIC (Escherichia coli [9]): 0.4 µg/mL (≈ 0.769 µM)
MIC (Escherichia coli [13]): 0.2 µg/mL (≈ 0.384 µM)
MIC (Enterobacter cloacae [14]): 0.2 µg/mL (≈ 0.384 µM)

SMILES: CO[C@@]1(NC(=O)Cc2ccc(O)cc2)C(=O)N2C(C(=O)O)=C(CSc3nnnn3C)COC21 (stereo partly drawn)
MIC (Escherichia coli [9]): 0.8 µg/mL (≈ 1.68 µM)
MIC (Escherichia coli [13]): 0.1 µg/mL (≈ 0.21 µM)
MIC (Enterobacter cloacae [14]): 100 µg/mL (≈ 210 µM)

SMILES: NCCSC1=C(C(=O)O)N2C(=O)CC2S1 (stereo not drawn)
RVmax (Escherichia coli [6]): 75
MIC (Escherichia coli [7]): 50 µg/mL (≈ 203 µM)
MIC (Escherichia coli [8]): 0.8 µg/mL (≈ 3.25 µM)

SMILES: CC(=O)NCCSC1=C(C(=O)O)N2C(=O)[C@@H](C(C)OS(=O)(=O)[O-])C2C1.[K+] (stereo partly drawn)
MIC (Escherichia coli [1]): 1.6 µg/mL
MIC (Escherichia coli [2]): 0.2 µg/mL

SMILES: CC1(C)SC2[C@H](NC(=O)c3ccccc3)C(=O)N2C1C(=O)O (stereo partly drawn)
RVmax [16]: 2

SMILES: Cn1nnnc1SCC1=C(C(=O)O)N2C(=O)[C@@H](NC(=O)Cc3ccc(O)cc3)C2OC1 (stereo partly drawn)
MIC (Escherichia coli [9]): > 100 µg/mL
MIC (Escherichia coli [13]): 0.8 µg/mL (≈ 1.79 µM)
MIC (Enterobacter cloacae [14]): > 100 µg/mL

SMILES: CC(=O)NCCSC1=C(C(=O)O)N2C(=O)[C@@H](C(C)O)C2C1 (stereo partly drawn)
MIC (Escherichia coli [1]): 25 µg/mL (≈ 79.5 µM)
MIC (Escherichia coli [2]): 0.2 µg/mL (≈ 0.636 µM)

SMILES: O=C(CSc1cc(Cl)nc(Cl)c1)N[C@H]1CN(OS(=O)(=O)[O-])C1=O.[K+]
MIC (Staphylococcus aureus [3]): 0.1 µg/mL
MIC (Staphylococcus aureus [4]): 0.2 µg/mL
RHR (Staphylococcus aureus [5]): < 0.5

SMILES: NCCSC1=C(C(=O)O)N2C(=O)[C@H](CO)C2S1 (stereo partly drawn)
RVmax (Escherichia coli [6]): < 0.1
MIC (Escherichia coli [7]): 3.1 µg/mL (≈ 11.2 µM)
MIC (Escherichia coli [8]): 1.5 µg/mL (≈ 5.43 µM)

SMILES: CC1[C@H](NC(=O)CSc2cc(Cl)nc(Cl)c2)C(=O)N1OS(=O)(=O)O (single isomer, unassigned)
MIC (Staphylococcus aureus [3]): 0.1 µg/mL (≈ 0.24 µM)
MIC (Staphylococcus aureus [4]): 1.6 µg/mL (≈ 3.84 µM)
RHR (Staphylococcus aureus [5]): 1

SMILES: CO[C@@]1(NC(=O)CSCC#N)C(=O)N2C(C(=O)[O-])=C(CSc3nnnn3C)CS[C@@H]21.[Na+] [CEFMETAZOLE SODIUM]
MIC (Escherichia coli [9]): 0.8 µg/mL
MIC (Escherichia coli [10]): 0.8 µg/mL

Next, values leading:

RHR [11]: 3
RHR [12]: < 0.1
SMILES: CC(=O)OCC1=C(C(=O)O)N2C(=O)[C@@H](NC(=O)/C(=N/OCC(=O)O)c3csc(N)n3)C2SC1 (stereo partly drawn)

RHR [11]: 101
RHR [12]: 2111
SMILES: CC(=O)OCC1=C(C(=O)O)N2C(=O)[C@@H](NC(=O)/C(=N\OCC(=O)O)c3csc(N)n3)C2SC1 (stereo partly drawn)

MIC (Escherichia coli [9]): 50 µg/mL (≈ 102 µM)
MIC (Escherichia coli [13]): 0.2 µg/mL (≈ 0.408 µM)
MIC (Enterobacter cloacae [14]): 0.4 µg/mL (≈ 0.816 µM)
SMILES: Cn1nnnc1SCC1=C(C(=O)O)N2C(=O)[C@@H](NC(=O)C(C(=O)O)c3ccc(O)cc3)C2OC1 (stereo partly drawn)

MIC (Enterobacter cloacae [15]): > 100 µg/mL
SMILES: Cn1nnnc1SCC1=C(C(=O)O)N2C(=O)[C@@H](NC(=O)Cc3csc(N)n3)C2SC1 (stereo partly drawn)

MIC (Enterobacter cloacae [15]): 1.6 µg/mL (≈ 3.13 µM)
SMILES: CO/N=C(/C(=O)N[C@@H]1C(=O)N2C(C(=O)O)=C(CSc3nnnn3C)CSC12)c1csc(N)n1 (stereo partly drawn)

MIC (Escherichia coli [9]): 12.5 µg/mL (≈ 28.3 µM)
MIC (Escherichia coli [10]): 0.8 µg/mL (≈ 1.81 µM)
SMILES: Cn1nnnc1SCC1=C(C(=O)O)N2C(=O)[C@@H](NC(=O)CSCC#N)C2SC1 (stereo partly drawn)

RHR [12]: 19
MIC (Escherichia coli [8]): 0.2 µg/mL (≈ 0.408 µM)
SMILES: Cn1nnnc1SCC1=C(C(=O)O)N2C(=O)C(NC(=O)C(C(=O)O)c3ccc(O)cc3)C2OC1 (stereo not drawn)

RHR [11]: 100
RHR [12]: 100
SMILES: CO/N=C(\C(=O)N[C@@H]1C(=O)N2C(C(=O)O)=C(COC(C)=O)CS[C@H]12)c1csc(N)n1 [CEFOTAXIME]
